Assay results reported in publication PMC12187842, “A novel molecule targeting neutrophil-mediated B-1a cell trogocytosis attenuates sepsis-induced acute lung injury” (Frontiers in Immunology, 2025).

How the values were obtained:
Type in all cases: in vivo, mouse
[1] = test system: CLP-induced sepsis in C57BL/6 mice; assay: Survival study in CLP mice; conditions: C11 10 mg/kg i.p. once after CLP (Figure 5 legend: 10 μg/kg), single s.c. imipenem 0.5 mg/kg; n = 21/group; CLP vehicle 28.6%; p < 0.05 vs. CLP vehicle, log-rank
Text: (§1) Mice were anesthetized with 2% isoflurane in oxygen, and sepsis was induced via cecal ligation and puncture (CLP) ([26]). A 1-cm midline abdominal incision was made to expose the cecum, which was ligated 1-cm proximal to its end using a 4-0 silk suture. The cecum then was perforated with a single through-and-through puncture using a 22-gauge needle, positioned midway between the ligation and the tip of the cecum. A small amount of fecal material was gently extruded from the perforation sites to confirm the patency of the punctures, and the cecum was subsequently returned to the peritoneal cavity. Following abdominal closure, resuscitation was provided via subcutaneous (s.c.) injection of 500 µL normal saline. Postoperative analgesia was administered with a single dose of 0.1 mg/kg buprenorphine. […]
All statistical analyses were performed using Prism 10 (GraphPad Software, San Diego, CA). Data are expressed as the mean ± standard error of the mean (SEM), and p-values < 0.05 were considered statistically significant. […] For survival analysis, data were assessed using the Kaplan-Meier estimator and compared using the log-rank test.

[2] = test system: B-1a cells; assay: B-1a cell numbers in pleural and peritoneal cavities of CLP mice by flow cytometry
Text: as §1
B-1a cell and neutrophil populations were analyzed by flow cytometry ([9], [11], [28]). […] After that, B-1a cells (CD45^+CD19^+B220^lo/-CD5^+CD23^-) ([6], [28]), and neutrophils (CD45^+Ly6G^+) were detected by flow cytometry. Fc block (Cat. No. 156604, BioLegend) was used to prevent nonspecific antibody binding and the cell viability was determined using a Zombie Aqua Fixable Viability Kit (BioLegend). […]

[3] = test system: CLP-induced sepsis in C57BL/6 mice; assay: Plasma organ injury markers in CLP mice by colorimetric enzymatic assays; conditions: C11 10 mg/kg i.p. once after CLP (Figure 5 legend: 10 μg/kg); 20 h; n = 5-7/group; vs. CLP vehicle
Text: (§2) Mice were anesthetized with 2% isoflurane in oxygen, and sepsis was induced via cecal ligation and puncture (CLP) ([26]). A 1-cm midline abdominal incision was made to expose the cecum, which was ligated 1-cm proximal to its end using a 4-0 silk suture. The cecum then was perforated with a single through-and-through puncture using a 22-gauge needle, positioned midway between the ligation and the tip of the cecum. A small amount of fecal material was gently extruded from the perforation sites to confirm the patency of the punctures, and the cecum was subsequently returned to the peritoneal cavity. Following abdominal closure, resuscitation was provided via subcutaneous (s.c.) injection of 500 µL normal saline. Postoperative analgesia was administered with a single dose of 0.1 mg/kg buprenorphine. To evaluate the effects of the therapeutic peptide (named Compound 11 or C11) (synthesized by GenScript USA Inc., Piscataway, NJ) on sepsis, C57BL/6 mice were assigned to three experimental groups: the Sham group, the CLP group treated with vehicle, and the CLP group treated with C11 (10 mg/kg). C11 was dissolved in DMSO (10 mg/mL) and diluted with saline to a total volume of 500 µL. The peptide was administered once, immediately after surgery, via intraperitoneal (i.p.) injection. Mice in the vehicle group received an equivalent volume of DMSO and normal saline via i.p. injection. After 20 h, lungs were harvested, and blood was collected via cardiac puncture. For the survival study, animals received a single subcutaneous (s.c.) injection of 0.5 mg/kg imipenem at the end of the CLP.
Blood was collected by heart puncture. Plasma levels of organ injury markers (ALT: alanine transaminase, AST: aspartate transferase, and LDH: lactate dehydrogenase) were assessed by using colorimetric enzymatic assays (MedTest Dx, Canton, MI) according to the manufacturer’s protocol. Plasma levels of pro-inflammatory cytokines (TNFα: tumor necrosis factor α, and IL-6: interleukin-6) were measured by using mouse-specific ELISA kits (BD Biosciences).

[4] = test system: CLP-induced sepsis in C57BL/6 mice; assay: Lung tissue mRNA expression in CLP mice by real-time qPCR; conditions: C11 10 mg/kg i.p. once after CLP (Figure 5 legend: 10 μg/kg); 20 h; normalized to β-actin; n = 5-7/group; vs. CLP vehicle
Text: as §2
Total RNA was extracted from lungs using a TRIzol reagent (Thermo Fisher Scientific) according to the manufacturer’s instructions. cDNA was synthesized using M-MLV reverse transcriptase (Thermo Fisher Scientific). Quantitative real-time PCR (qPCR) was performed using SYBR Green PCR Master Mix (Thermo Fisher Scientific) with a StepOnePlus Real-Time PCR thermocycler (Thermo Fisher Scientific). Mouse β-actin served as an endogenous control to normalize mRNA levels using the comparative Ct method. […]

## 126-ELKNRTVSWFS-136 [Compound C11]
[1]
  survival: 57.1%
[2]; C11 10 mg/kg i.p. once immediately after CLP, 20 h after surgery, flow cytometry, n = 5-6/group, p < 0.05 vs. C11 (-)
  B-1a cell numbers in the pleural and peritoneal cavities: effectively preserved
[2]; discussion, blocking of Siglec-G/CD47 interaction by C11 in CLP mice
  restoration of B-1a cell numbers in sepsis: did not fully restore B-1a cell numbers
[3]
  blood ALT: markedly reduced
  blood AST: markedly reduced
  blood LDH: markedly reduced
[4]
  lung tissue CXCL1 (KC) mRNA: significantly reduced
  lung tissue CXCL2 (MIP-2) mRNA: significantly reduced
  lung tissue IL-6 mRNA: significantly reduced
